Experimental data reported in patent EP0641797A1, “Cephem derivatives and antimicrobial agents containing the same” (KATAYAMA SEIYAKUSYO CO. Ltd., priority 1993, dated 1995).
Converted amounts (≈) assume the structure as drawn.

Tests used:
Assay in all cases: MIC on standard strains, standard method of Japan Society of Chemotherapy
Type in all cases: cell-based
S. epidemidis IAM 1296 = test system: S. epidemidis IAM 1296
Procedure: (§1) Antimicrobial activity of the compounds of the present invention were measured using CTM (cefotiam) and FMOX (flomoxef) as control drugs in accordance with the standard method of Japan Society of Chemotherapy. Of the 25 standard strains used in this test, Staphylococcus aureus 167 and Staphylococcus aureus 195 belong to MRSA.
(§2) In these tables, drugs tested are shown by the corresponding examples in which they were synthesized.

S. aureus 195 = conditions: Staphylococcus aureus; S. aureus 195 (MRSA)
Procedure: as §1, §2

M. morganii IFO 3848 = conditions: Morganella morganii, IFO3848
Procedure: as §1, §2

P. vulugaris OX-19 = test system: P. vulugaris OX-19
Procedure: as §1, §2

K. pneuminiae IFO 3317 = test system: K. pneuminiae IFO 3317
Procedure: as §1, §2

K. pneuminiae No. 42 = test system: K. pneuminiae No. 42
Procedure: as §1, §2

S. aureus 209p JC-1 = conditions: Staphylococcus aureus, 209P, read-out: MIC
Procedure: as §1, §2

S. marcescens No. 16-2 = conditions: Serratia marcescens, NO.162
Procedure: as §1, §2

E. cloacae ATCC 13407 = conditions: Enterobacter cloacae, ATCC13407, E. cloacae ATCC 13407; read-out: MIC
Procedure: as §1, §2

E. coli CSH2(RE45) = conditions: Escherichia coli
Procedure: as §1, §2

S. aureus Smith = conditions: Staphylococcus aureus, read-out: MIC
Procedure: as §1, §2

P. cepacia = conditions: Burkholderia cepacia, read-out: MIC
Procedure: as §1, §2

M. luteus ATCC 9341 = conditions: Micrococcus luteus, ATCC9341
Procedure: as §1, §2

P. aeruginosa NCTC 10490 = conditions: Pseudomonas aeruginosa, NCTC10490, P. aeruginosa NCTC 10490; read-out: MIC
Procedure: as §1, §2

E. coli CSH2(RK1) = conditions: Escherichia coli
Procedure: as §1, §2

C. freundii ATCC 8090 = conditions: Citrobacter freundii, ATCC8090, C. freundii ATCC 8090; read-out: MIC
Procedure: as §1, §2

S. marcescens IAM 1184 = conditions: Serratia marcescens, IAM1184, S. marcescens IAM 1184; read-out: MIC
Procedure: as §1, §2

A. calcoaceticos T59 = conditions: read-out: MIC
Procedure: as §1, §2

E. cloacae Nek39 = conditions: Enterobacter cloacae, NEK39, E. cloacae Nek39; read-out: MIC
Procedure: as §1, §2

P. aeruginosa AKR17 = conditions: Pseudomonas aeruginosa
Procedure: as §1, §2

S. aureus 167 = conditions: Staphylococcus aureus; S. aureus 167 (MRSA)
Procedure: as §1, §2

B. subtilis ATCC 6633 = conditions: Bacillus subtilis, ATCC6633, B. subtilis ATCC 6633; read-out: MIC
Procedure: as §1, §2

A. faecalis ATCC 3750 = conditions: Alcaligenes faecalis, ATCC3750, A. faecalis ATCC 3750; read-out: MIC
Procedure: as §1, §2

E. coli NHIJ JC-2 = conditions: Escherichia coli, NHIJJC2
Procedure: as §1, §2

P. mirabilis IFO 3849 = conditions: Proteus mirabilis, IFO3849, P. mirabilis IFO 3849; read-out: MIC
Procedure: as §1, §2

Nc1nc(/C(=N/O)C(=O)N[C@@H]2C(=O)N3C(C(=O)[O-])=C(C[n+]4cccc(-c5nsc(N)n5)c4)CS[C@H]23)cs1 [Ex. 12, 7β-[2-(2-aminothiazol-4-yl)-2-syn-hydroxyiminoacetamido]-3-[3-(5-amino-1,2,4-thiadiazol-3-yl)pyridinio]methyl-3-cephem-4-carboxylate]
MIC (S. epidemidis IAM 1296): 0.05 µg/mL (≈ 0.0893 µM) | MIC (S. aureus 195): 1.56 µg/mL (≈ 2.79 µM) | MIC (M. morganii IFO 3848): 0.1 µg/mL (≈ 0.179 µM) | MIC (P. vulugaris OX-19): 0.39 µg/mL (≈ 0.697 µM) | MIC (K. pneuminiae IFO 3317): 0.2 µg/mL (≈ 0.357 µM) | MIC (K. pneuminiae No. 42): 0.78 µg/mL (≈ 1.39 µM) | MIC (S. aureus 209p JC-1): 0.2 µg/mL (≈ 0.357 µM) | MIC (S. marcescens No. 16-2): 100 µg/mL (≈ 179 µM) | MIC (E. cloacae ATCC 13407): 3.13 µg/mL (≈ 5.59 µM) | MIC (E. coli CSH2(RE45)): 0.39 µg/mL (≈ 0.697 µM) | MIC (S. aureus Smith): 0.39 µg/mL (≈ 0.697 µM) | MIC (P. cepacia): > 100 µg/mL | MIC (M. luteus ATCC 9341): 0.025 µg/mL (≈ 0.0447 µM) | MIC (P. aeruginosa NCTC 10490): 6.25 µg/mL (≈ 11.2 µM) | MIC (E. coli CSH2(RK1)): 0.78 µg/mL (≈ 1.39 µM) | MIC (C. freundii ATCC 8090): 0.39 µg/mL (≈ 0.697 µM) | MIC (S. marcescens IAM 1184): 0.78 µg/mL (≈ 1.39 µM) | MIC (A. calcoaceticos T59): 12.5 µg/mL (≈ 22.3 µM) | MIC (E. cloacae Nek39): 100 µg/mL (≈ 179 µM) | MIC (P. aeruginosa AKR17): > 100 µg/mL | MIC (S. aureus 167): 6.25 µg/mL (≈ 11.2 µM) | MIC (B. subtilis ATCC 6633): 0.2 µg/mL (≈ 0.357 µM) | MIC (A. faecalis ATCC 3750): 1.56 µg/mL (≈ 2.79 µM) | MIC (E. coli NHIJ JC-2): 0.39 µg/mL (≈ 0.697 µM) | MIC (P. mirabilis IFO 3849): 0.39 µg/mL (≈ 0.697 µM)

Nc1nc(-c2cc[n+](CC3=C(C(=O)[O-])N4C(=O)[C@@H](NC(=O)/C(=N\O)c5csc(N)n5)[C@H]4SC3)cc2)no1 [Ex. 13, 7β-[2-(2-aminothiazol-4-yl)-2-syn-hydroxyiminoacetamido]-3-[4-(5-amino-1,2,4-oxadiazol-3-yl)pyridinio]methyl-3-cephem-4-carboxylate]
MIC (S. epidemidis IAM 1296): 0.1 µg/mL (≈ 0.184 µM) | MIC (S. aureus 195): 3.13 µg/mL (≈ 5.76 µM) | MIC (M. morganii IFO 3848): 0.1 µg/mL (≈ 0.184 µM) | MIC (P. vulugaris OX-19): 0.2 µg/mL (≈ 0.368 µM) | MIC (K. pneuminiae IFO 3317): 0.2 µg/mL (≈ 0.368 µM) | MIC (K. pneuminiae No. 42): 0.78 µg/mL (≈ 1.44 µM) | MIC (S. aureus 209p JC-1): 0.2 µg/mL (≈ 0.368 µM) | MIC (S. marcescens No. 16-2): 100 µg/mL (≈ 184 µM) | MIC (E. cloacae ATCC 13407): 3.13 µg/mL (≈ 5.76 µM) | MIC (E. coli CSH2(RE45)): 0.39 µg/mL (≈ 0.718 µM) | MIC (S. aureus Smith): 0.39 µg/mL (≈ 0.718 µM) | MIC (P. cepacia): > 100 µg/mL | MIC (M. luteus ATCC 9341): 0.025 µg/mL (≈ 0.046 µM) | MIC (P. aeruginosa NCTC 10490): 1.56 µg/mL (≈ 2.87 µM) | MIC (E. coli CSH2(RK1)): 0.39 µg/mL (≈ 0.718 µM) | MIC (C. freundii ATCC 8090): 0.2 µg/mL (≈ 0.368 µM) | MIC (S. marcescens IAM 1184): 0.39 µg/mL (≈ 0.718 µM) | MIC (A. calcoaceticos T59): 12.5 µg/mL (≈ 23 µM) | MIC (E. cloacae Nek39): > 100 µg/mL | MIC (P. aeruginosa AKR17): > 100 µg/mL | MIC (S. aureus 167): 6.25 µg/mL (≈ 11.5 µM) | MIC (B. subtilis ATCC 6633): 0.2 µg/mL (≈ 0.368 µM) | MIC (A. faecalis ATCC 3750): 1.56 µg/mL (≈ 2.87 µM) | MIC (E. coli NHIJ JC-2): 0.2 µg/mL (≈ 0.368 µM) | MIC (P. mirabilis IFO 3849): 0.39 µg/mL (≈ 0.718 µM)

Nc1nc(-c2ccc[n+](CC3=C(C(=O)[O-])N4C(=O)[C@@H](NC(=O)/C(=N\O)c5csc(N)n5)[C@H]4SC3)c2)no1 [Ex. 14, 7β-[2-(2-aminothiazol-4-yl)-2-syn-hydroxyiminoacetamido)-3-[3-(5-amino-1,2,4-oxadiazol-3-yl)pyridinio]methyl-3-cephem-4-carboxylate]
MIC (S. epidemidis IAM 1296): 0.1 µg/mL (≈ 0.184 µM) | MIC (S. aureus 195): 6.25 µg/mL (≈ 11.5 µM) | MIC (M. morganii IFO 3848): 0.2 µg/mL (≈ 0.368 µM) | MIC (P. vulugaris OX-19): 0.39 µg/mL (≈ 0.718 µM) | MIC (K. pneuminiae IFO 3317): 0.39 µg/mL (≈ 0.718 µM) | MIC (K. pneuminiae No. 42): 0.78 µg/mL (≈ 1.44 µM) | MIC (S. aureus 209p JC-1): 0.2 µg/mL (≈ 0.368 µM) | MIC (S. marcescens No. 16-2): > 100 µg/mL | MIC (E. cloacae ATCC 13407): 3.13 µg/mL (≈ 5.76 µM) | MIC (E. coli CSH2(RE45)): 0.39 µg/mL (≈ 0.718 µM) | MIC (S. aureus Smith): 0.39 µg/mL (≈ 0.718 µM) | MIC (P. cepacia): > 100 µg/mL | MIC (M. luteus ATCC 9341): 0.05 µg/mL (≈ 0.092 µM) | MIC (P. aeruginosa NCTC 10490): 3.13 µg/mL (≈ 5.76 µM) | MIC (E. coli CSH2(RK1)): 0.78 µg/mL (≈ 1.44 µM) | MIC (C. freundii ATCC 8090): 0.2 µg/mL (≈ 0.368 µM) | MIC (S. marcescens IAM 1184): 0.78 µg/mL (≈ 1.44 µM) | MIC (A. calcoaceticos T59): 12.5 µg/mL (≈ 23 µM) | MIC (E. cloacae Nek39): 100 µg/mL (≈ 184 µM) | MIC (P. aeruginosa AKR17): > 100 µg/mL | MIC (S. aureus 167): 12.5 µg/mL (≈ 23 µM) | MIC (B. subtilis ATCC 6633): 0.2 µg/mL (≈ 0.368 µM) | MIC (A. faecalis ATCC 3750): 3.13 µg/mL (≈ 5.76 µM) | MIC (E. coli NHIJ JC-2): 0.39 µg/mL (≈ 0.718 µM) | MIC (P. mirabilis IFO 3849): 0.39 µg/mL (≈ 0.718 µM)
